# In patent US20050130938A1, “Method for alleviating syndromes and conditions of discomfort of the mammalian intestinal and genito-urinary tracts” (AkPharma Inc., priority 2001, published 2005):
# Assays:
# [1] = test system: IBS-related symptoms and conditions; test: 'pre-study' IBS survey of patients taking CGP tablets for 28 days; format: in vivo, human
# Source text: A ‘pre-study’ IBS survey was taken in a large private gastroenterology practice in southern New Jersey. Each of the patients in the survey consumed a series of 2-tablet doses of CGP, in which each tablet contained 0.335 grams CGP so that each dosage was 0.67 gram of CGP. Two tablets were consumed at breakfast, lunch, and dinner, regardless of the acidity of the foods consumed at the meals, and two additional tablets were consumed with any snack eaten during the day, regardless of the acidity of the snack. The total consumption by each patient varied from 8-10 tablets per day up to 20 tablets per day.
# The survey included twelve patients, eight of whom completed graphs of their 28-day experience with CGP. The experiences of the four remaining patients were written up by the medical supervisor based on oral reports. […] The patients marked daily, in 10% increments and 10% decrements, whether they felt up to 100% better or down to 100% worse as a result of the treatment.
# [2] = test system: Interstitial Cystitis Symptoms; conditions: key exacerbant foods and beverages; cited from earlier work
# [3] = test system: Food-Sensitive Interstitial Cystitis Patients; conditions: cited from earlier work
# Interstitial Cystitis = conditions: ICSG members; cited from earlier work
# astrocytes and neurons = conditions: culture; cited from earlier work
# [4] = cited from earlier work
# intestinal musculature = conditions: some cases; product withdrawn December 2000; cited from earlier work
# [5] = test system: excised animal uterus tissue; conditions: cited from earlier work; for action on the uterus: in vitro, excised animal uterus tissue
smiles,measurement,setting,value
"O=P([O-])([O-])OCC(O)CO.[Ca+2] (stereo not drawn) [CGP, 1,2,3-propanetriol, mono(dihydrogen phosphate) calcium salt (1:1)]",oral reports to the medical supervisor,"[1]; patients without graphs, one of four discontinued",helpful and effective at relieving symptoms and/or pain
same,effect on pain and/or symptoms in two of the eight patients who completed graphs (flatliners),[1]; self-rated daily graph,no effect
same,results of the remaining six patients who completed graphs,"[1]; self-rated daily graph, some going to 100% improvement and maintaining that level",good to remarkable
same,drop on the self-rated scale on the day without CGP,"[1]; single patients, one value each",10-20% and “50% better” to “50% worse” and “100% better” to “40% worse.”
same,condition on the one day on which CGP was not ingested,"[1]; three patients, returned to improved state upon resuming treatment",marked condition deterioration
same,patients showed major improvements in IBS-related symptoms and conditions,"[1]; twelve patients, oral 0.67 gram per dose with meals and snacks, 28 days",75%
same,patients reported a reduction in [urinary] urgency,[2],61.3%
same,patients reported a reduction in pain and discomfort,[2],70.4%
same,pain as a result of consuming CGP,[3]; decreased from 76.7%,41%
same,urinary urgency as a result of consuming CGP,[3]; decreased from 79.5%,51%
same,participants enabled to tolerate a wider variety of foods of an acidic nature,Interstitial Cystitis,81%
same,participants found it to be beneficial,Interstitial Cystitis,69%
same,effect on astrocytes in vitro,astrocytes and neurons,enhance the proliferation and differentiation of astrocytes
same,effect on neurons compared with calcium chloride and non-reagent added media,astrocytes and neurons,significant survival effects
same,dissociation of calcium from the anion,[4]; regardless of the pH level in the stomach,instantly dissociated
"O=C([O-])[O-].[Ca+2] [calcium carbonate, reference compound]",time after ingestion until calcium is released,"[4]; estimated, only in an acidic milieu",20 to 30 min
Cc1[nH]cnc1CN1CCc2c(c3ccccc3n2C)C1=O [Lotronex],adverse events in use,intestinal musculature,intestinal ischemic collapse
"O=P([O-])([O-])OC(CO)CO.[Na+].[Na+] [sodium glycerophosphate, Sodium Beta-Glycerophosphate]",anti-spasmodic behavior on the intestine,[5],exclude the intestine
same,action on the uterus,[5],uterine anti-spasmodic agents
O=P([O-])([O-])OCC(O)CO.[Mg+2] (stereo not drawn) [magnesium glycerophosphate],anti-spasmodic behavior on the intestine,[5],exclude the intestine
same,action on the uterus,[5],uterine anti-spasmodic agents
